Among the data in ChEMBL document CHEMBL5241128, “Synthesis of 1-O-acyl- and 1-oxo-kamebanin analogues and their cytotoxic activity” (Bioorg Med Chem Lett, 2023) are IC50 values, retold here.

The term IC50 denotes the concentration that gives 50% inhibition.

Experiment [1] deals with HCT-116. The experiment in a line: Cytotoxicity against human HCT-116 cells assessed as inhibition of cell growth. The experiment is classed as functional, cell-based.
In experiment [2] the test system is HL-60. The experiment in a line: Cytotoxicity against human HL-60 cells assessed as inhibition of cell growth. The experiment is classed as functional, cell-based.

For the compound `C=C1C(=O)[C@@]23[C@@H]4OC(C)(C)O[C@@H]2C[C@@H]2C(C)(C)CCC(=O)[C@@]2(C)[C@@H]3CC[C@@H]14`, the IC50 was determined as 77 µM in experiment [1] and 36 µM in experiment [2].
Consider `C=C1C(=O)[C@@]23[C@H](O)C[C@@H]4C(C)(C)CC[C@H](OC(=O)C(C)(C)C)[C@@]4(C)[C@@H]2CC[C@@H]1[C@H]3O`, for which the IC50 in experiment [1] amounted to 4.3 µM; in experiment [2], 2.8 µM.
Take `C=C1C(=O)[C@@]23[C@H](O)C[C@@H]4C(C)(C)CC[C@H](OC(=O)CCCC)[C@@]4(C)[C@@H]2CC[C@@H]1[C@H]3O`: the concentration for half-maximal inhibition (IC50) in experiment [1] came to 4.2 µM; in experiment [2] it was 2 µM.
On to `C=C1C(=O)[C@@]23[C@H](O)C[C@@H]4C(C)(C)CC[C@H](OC(=O)CC)[C@@]4(C)[C@@H]2CC[C@@H]1[C@H]3O`, for which the figures for the concentration for half-maximal inhibition (IC50) in experiment [1] and in experiment [2] were 9.7 µM and 5.9 µM, respectively.
Regarding `C=C1C(=O)[C@@]23[C@@H]4OC(C)(C)O[C@@H]2C[C@@H]2C(C)(C)CC[C@H](OC(=O)C(C)(C)C)[C@@]2(C)[C@@H]3CC[C@@H]14`, the 50% inhibitory concentration (IC50) in experiment [1] was 35 µM; in experiment [2], 14 µM.
For `C=C1C(=O)[C@@]23[C@H](O)C[C@@H]4C(C)(C)CC[C@H](OC(C)=O)[C@@]4(C)[C@@H]2CC[C@@H]1[C@H]3O` the same measures were 13 µM and 5.7 µM.
`C=C1C(=O)[C@@]23[C@@H]4OC(C)(C)O[C@@H]2C[C@@H]2C(C)(C)CC[C@H](OC(C)=O)[C@@]2(C)[C@@H]3CC[C@@H]14`: the IC50 in experiment [1] amounted to 43 µM; in experiment [2], 57 µM.
Take `C=C1C(=O)[C@@]23[C@@H]4OC(C)(C)O[C@@H]2C[C@@H]2C(C)(C)CC[C@H](OC(=O)CCCC)[C@@]2(C)[C@@H]3CC[C@@H]14`: the IC50 was found to be 10 µM in experiment [1] and 7.7 µM in experiment [2].
Regarding `C=C1C(=O)[C@@]23[C@H](O)C[C@@H]4C(C)(C)CC[C@H](O)[C@@]4(C)[C@@H]2CC[C@@H]1[C@H]3O` [KAMEBANIN], the IC50 was found to be 12 µM in experiment [1] and 3.3 µM in experiment [2].
`C=C1C(=O)[C@@]23[C@@H]4OC(C)(C)O[C@@H]2C[C@@H]2C(C)(C)CC[C@H](O)[C@@]2(C)[C@@H]3CC[C@@H]14`: the values for the concentration for half-maximal inhibition (IC50) in experiment [1] and in experiment [2] were 7.6 µM and 7.3 µM, respectively.
For the compound `C=C1C(=O)[C@@]23[C@H](O)C[C@@H]4C(C)(C)CC[C@H](OC(=O)CCC)[C@@]4(C)[C@@H]2CC[C@@H]1[C@H]3O`, the IC50 in experiment [1] is 4.2 µM; in experiment [2] it was 6.1 µM.
For `C=C1C(=O)[C@@]23[C@@H]4OC(C)(C)O[C@@H]2C[C@@H]2C(C)(C)CC[C@H](OC(=O)CCCCC)[C@@]2(C)[C@@H]3CC[C@@H]14` the same measures were 6.8 µM and 6.9 µM.
For `C=C1C(=O)[C@@]23[C@@H]4OC(C)(C)O[C@@H]2C[C@@H]2C(C)(C)CC[C@H](OC(=O)CCC)[C@@]2(C)[C@@H]3CC[C@@H]14` the same measures were 3.9 µM and 7.2 µM.
`C=C1C(=O)[C@@]23[C@@H]4OC(C)(C)O[C@@H]2C[C@@H]2C(C)(C)CC[C@H](OC(=O)CC)[C@@]2(C)[C@@H]3CC[C@@H]14`: the IC50 in experiment [1] was 6.9 µM; in experiment [2], 5.7 µM.
For `C=C1C(=O)[C@@]23[C@H](O)C[C@@H]4C(C)(C)CC[C@H](OC(=O)CCCCC)[C@@]4(C)[C@@H]2CC[C@@H]1[C@H]3O` the same measures were 4 µM and 5.6 µM.
As to `C=C1C(=O)[C@@]23[C@H](O)C[C@@H]4C(C)(C)CCC(=O)[C@@]4(C)[C@@H]2CC[C@@H]1[C@H]3O`, the figures for the IC50 in experiment [1] and in experiment [2] were 11 µM and 2.2 µM, respectively.
Turning to `COc1cc([C@@H]2c3cc4c(cc3[C@@H](O[C@@H]3O[C@@H]5CO[C@@H](C)O[C@H]5[C@H](O)[C@H]3O)[C@H]3COC(=O)[C@H]23)OCO4)cc(OC)c1O` [ETOPOSIDE], the half-maximal inhibitory concentration (IC50) in experiment [1] amounted to 23 µM; in experiment [2], 12 µM.
